Assay results reported in patent US9351955B2, “Compounds and pharmaceutical compositions thereof for the treatment of cystic fibrosis” (Galapagos NV, priority 2013, dated 2016).
pEC50, pIC50: −log10 of the molar value. Values joined by “and” are separate entries in the source; they are usually repeats but may differ in a detail not shown here. Identical values can stand only once.

Experiments:
CFTR G551D = CFTR G551D (Homo sapiens, UniProt P13569, G551D); assay: TECC assay, FRT cells stably transfected with G551D CFTR; format: cell-based; conditions: high expression CFTR-G551D cells, several values in a cell = repeat determinations
Experimental: 7.2.3. FRT-CFTR G551D Protocol
For G551D recordings, Fish Rat Thyroid (FRT) cells stably transfected with G551D CFTR (a low CFTR-G551D expressing cell line and a high expressing CFTR-G551D cell line from Rosalind Franklin University of medicine and science, Chicago, Ill.) are plated on Transwell supports (Costar 6.5 mm Diameter, […]). The cells are grown for 8-10 d under liquid-liquid interface conditions prior to electrophysiological readings. For electrophysiological recording, the FRT-G551D cells are mounted in the TECC heating plate for electrophysiological measurement and kept at 37° C. The epithelia are bathed in hepes buffered culturing medium without FBS on both the basolateral and apical sides. Apical amiloride is used to inhibit the endogenous ENaC currents while forkolin is applied on both apical and basolateral side to stimulate CFTR. After forskolin triggering, compounds are added on both sides to test their potential for increasing CFTR gating. Measurements are done during a 10 minute timeframe with recordings every 2 min. The increase in ISC is used as a measure for the increased CFTR activity, EC50 values can be generated by measuring impact of different concentrations of compound on ISC on the cells, for this purpose each transwell is treated with a different compound concentration. Inh-172, an inhibitor specific for CFTR, is used to test the specificity of the tested compounds.
When subjected to this protocol, the following EC50 are measured.

CFTR-G1349D = target: T1, CFTR-G1349D (Homo sapiens, UniProt P13569, G1349D); assay: YFP-halide influx assay for the CFTR-G1349D; format: cell-based; conditions: CFTR-G1349D mutant; read-out: EC50 measured by YFP-halide influx assay for the CFTR-G1349D
T1 construct: expressed in transfected cells
Outline: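 HEK293 cells reverse-transfected with mutant CFTR and halide-sensitive YFP H148Q/I152L/F47L reporter, then expressed 24 h at 37 °C, 5% CO2. Fluorescence quenching recorded for 7 s after I^− injection; response expressed as 1−F/F0, with EC50 derived from response versus compound concentration.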

CYP3A4 = target: T2, CYP3A4 (Homo sapiens, UniProt P08684); assay: Time dependent inhibition (TDI) of CYP3A4 in human liver microsomes; format: in vitro ADME
T2 construct: tissue BD Gentest; host or cells: human liver microsomes
Experimental: 8.7.11. Time Dependent Inhibition (TDI) 8.7.11.1. Protocol
The mechanism-based inhibition assay for CYP3A4 is carried out to evaluate the presence of any TDI.
A 5 mM stock solution of test compound is prepared in methanol. This stock is serially diluted 1:3 in methanol and then added in duplicates to mixture containing 50 mM potassium phosphate buffer pH 7.4 and human liver microsomes (BD Gentest). Final reaction conditions are as follows: seven test compound concentrations (0.14-100 μM), prepared in duplicates and 2% methanol.
A summary of the specific conditions is shown below.
After finishing the pre-incubation, the reaction is finally started by adding the co-factor mix to the first replica and probe substrate to second replica (opposite from pre-incubation).
After incubation at 37° C., the reaction (aliquot of 50 μL) is terminated with 150 μL acetonitrile:methanol (2:1) solution with internal standard (warfarin). Samples are centrifuged and the supernatant fractions analyzed by LC-MS/MS.
The instrument responses (ratio of test compound and internal standard peak areas) are referenced to those for solvent controls (assumed as 100%) in order to determine the percentage reduction in probe metabolism. […]

Lung distribution study = format: in vivo, Sprague-Dawley rats; conditions: male, Sprague-Dawley, rat, plasma, oral, 10 mg/kg, exposure values
Experimental: Sprague-Dawley rats (male, 5-6 weeks old) are obtained from Janvier (France). Rats are acclimatized for at least 5 days before treatment and are kept on a 12 h light/dark cycle. Temperature is maintained at approximately 22° C., and food and water are provided ad libitum. Two days before administration of the test compounds, rats may undergo surgery to place a catheter in the jugular vein under isoflurane anesthesia. After the surgery, rats are housed individually. Rats are deprived of food for at least 16 h before oral dosing and 6 h after. Water is provided ad libitum.
8.7.3. Lung Distribution Studies
Compounds are formulated in 0.5% methylcellulose and EtOH/PEG 200/Methylcellulose 0.5% (10/25/65 v/v/v) by the oral route. Test compounds are orally dosed as a single esophageal gavage at 10 mg/kg under a dosing volume of 5 mL/kg. Each group consists of 12 rats. At each time point, typically 1, 3, 6 and 24 h, animals are euthanized and blood and lung samples are collected. Whole blood samples are centrifuged at 1500 g for 10 min and the resulting plasma samples, along with the lung samples, are stored at −20° C. pending analysis.
8.7.4. Quantification of Compound Levels in Plasma and Lung Samples
Lung samples are milled in the presence of ceramic beads and proteins present in plasma and lung samples are precipitated with an organic solvent. Concentrations of each test compound are determined by an LC-MS/MS method in which the mass spectrometer is operated in positive or negative electrospray mode.
For each animal, the lung-to-plasma ratio is determined as the ratio between compound concentration in lung and in plasma. At each sampling time point, mean, standard error of the mean (sem) and coefficient of variation (CV %) are calculated using data from three animals.

CFTR G551D, sequence (P13569 whole entry G551D): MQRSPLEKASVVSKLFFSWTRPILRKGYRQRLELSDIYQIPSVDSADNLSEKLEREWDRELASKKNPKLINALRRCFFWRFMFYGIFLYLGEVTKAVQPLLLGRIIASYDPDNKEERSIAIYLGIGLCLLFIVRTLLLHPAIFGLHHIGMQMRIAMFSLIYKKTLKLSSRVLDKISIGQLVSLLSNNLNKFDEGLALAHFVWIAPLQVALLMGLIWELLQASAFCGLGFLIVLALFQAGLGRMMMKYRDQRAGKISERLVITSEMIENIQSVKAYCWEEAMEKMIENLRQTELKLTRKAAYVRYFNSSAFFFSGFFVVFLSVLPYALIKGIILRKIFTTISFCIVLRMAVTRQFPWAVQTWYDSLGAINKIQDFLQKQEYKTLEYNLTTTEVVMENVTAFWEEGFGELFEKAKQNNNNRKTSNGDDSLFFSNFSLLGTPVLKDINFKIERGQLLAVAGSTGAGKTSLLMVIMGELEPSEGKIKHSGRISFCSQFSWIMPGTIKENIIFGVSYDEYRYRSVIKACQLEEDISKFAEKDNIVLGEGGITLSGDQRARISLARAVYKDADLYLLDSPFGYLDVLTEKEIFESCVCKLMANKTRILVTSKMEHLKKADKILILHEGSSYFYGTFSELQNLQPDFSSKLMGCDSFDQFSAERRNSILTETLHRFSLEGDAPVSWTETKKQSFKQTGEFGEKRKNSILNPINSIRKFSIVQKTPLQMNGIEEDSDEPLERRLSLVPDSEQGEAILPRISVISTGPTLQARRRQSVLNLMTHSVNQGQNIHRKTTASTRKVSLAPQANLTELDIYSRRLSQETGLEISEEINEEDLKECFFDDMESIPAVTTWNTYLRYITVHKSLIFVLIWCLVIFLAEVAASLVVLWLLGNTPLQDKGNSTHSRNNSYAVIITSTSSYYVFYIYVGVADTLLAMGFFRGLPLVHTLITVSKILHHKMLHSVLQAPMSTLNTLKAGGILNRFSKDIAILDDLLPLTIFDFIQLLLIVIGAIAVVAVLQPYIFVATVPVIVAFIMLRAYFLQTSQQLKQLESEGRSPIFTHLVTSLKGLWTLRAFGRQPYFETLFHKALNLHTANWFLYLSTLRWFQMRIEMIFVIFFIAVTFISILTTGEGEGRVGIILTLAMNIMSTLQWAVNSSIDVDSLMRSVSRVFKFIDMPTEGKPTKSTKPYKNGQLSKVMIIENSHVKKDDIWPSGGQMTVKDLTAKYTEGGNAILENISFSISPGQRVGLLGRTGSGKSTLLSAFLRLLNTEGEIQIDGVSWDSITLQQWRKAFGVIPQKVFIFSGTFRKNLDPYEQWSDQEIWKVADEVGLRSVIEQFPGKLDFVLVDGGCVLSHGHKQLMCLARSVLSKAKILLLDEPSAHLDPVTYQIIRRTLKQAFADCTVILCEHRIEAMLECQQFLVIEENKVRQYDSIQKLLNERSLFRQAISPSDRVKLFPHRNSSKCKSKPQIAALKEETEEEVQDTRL
T1 sequence (P13569 whole entry G1349D): as the sequence (P13569 whole entry G551D) above, with D551G, G1349D counted along it
T2 sequence (P08684 whole entry): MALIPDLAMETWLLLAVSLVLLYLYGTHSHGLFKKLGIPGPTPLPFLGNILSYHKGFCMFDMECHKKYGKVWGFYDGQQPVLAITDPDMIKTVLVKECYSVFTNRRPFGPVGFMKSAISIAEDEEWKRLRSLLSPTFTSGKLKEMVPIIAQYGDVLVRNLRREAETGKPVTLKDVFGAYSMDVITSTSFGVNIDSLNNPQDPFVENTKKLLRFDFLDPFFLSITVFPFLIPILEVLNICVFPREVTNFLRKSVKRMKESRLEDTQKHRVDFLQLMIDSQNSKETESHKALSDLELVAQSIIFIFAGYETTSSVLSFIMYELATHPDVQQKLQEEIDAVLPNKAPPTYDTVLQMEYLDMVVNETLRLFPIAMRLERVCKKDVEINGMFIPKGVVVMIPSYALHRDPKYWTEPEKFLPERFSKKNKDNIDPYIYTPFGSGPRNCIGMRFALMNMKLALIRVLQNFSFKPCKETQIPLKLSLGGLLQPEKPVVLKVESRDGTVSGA

For `CC1(C)Cc2c(sc(NC(=O)c3ccn[nH]3)c2C(N)=O)C(C)(C)O1` [Compound 2, N-(3-carbamoyl-5,5,7,7-tetramethyl-5,7-dihydro-4H-thieno[2,3-c]pyran-2-yl)-1H-pyrazole-5-carboxamide], the pEC50 (CFTR G551D) was 7.18 and 7.04 and 7.07 and 7.21 and 7.24 and 7.06, the pEC50 (CFTR-G1349D) was 7.20 and the “time-dependent inhibition of CYP3A4” value (CYP3A4; IC50 without vs with preincubation) was “no evidence for time-dependent inhibition of CYP3A4”. For the same molecule, the pIC50 (CYP3A4; both without and with preincubation, Midazolam or testosterone as probe substrate, human liver microsomes) was < 4.00.
In the case of `CC1(C)Cc2c(sc(NC(=O)C3(CO)CC3)c2C(N)=O)C(C)(C)O1` [Compound 9, 2-(1-(hydroxymethyl)cyclopropanecarboxamido)-5,5,7,7-tetramethyl-5,7-dihydro-4H-thieno[2,3-c]pyran-3-carboxamide], the pEC50 (CFTR G551D) was 6.44 and 6.28 and 6.16 and 6.40 and 6.29, the pEC50 (CFTR-G1349D) was 6.24 and the AUC(0-t) (Lung distribution study) was 38900 ng·h/mL.
